Where two headings read alike, the source gives them in different places. Each block holds one compound with its values, some of them ahead of it.
Assays:
[1] = system: Z-138; experiment: Long-term proliferation (LTP) assay; format: cell-based; conditions: Homo sapiens
Method: FIG. 4 illustrates a representative sample of a long-term proliferation assay performed in the mantle cell lymphoma cell line Z-138. Assays were performed in technical triplicates, reading cell viability over 14 days. Growth curves (top panel) were calculated in Excel. IC50 (bottom panel) and IC90 (not shown) values were calculated in GraphPad Prism using a non-linear regression analysis, fixing the top and bottom of the curves to 100 and 0%, respectively. The IC50 values in the Table are indicated in microM. [table]

[2] = system: sDMA methylation in Granta-519 cells; experiment: sDMA western blot, 10 kDa band to total SmD3; format: cell-based; conditions: Homo sapiens
Method: (§1) The measurement of the 10 kDa band was used to calculate the methylation IC50 values. […] Concentration-dependent decreases in the 10 kDa band were observed on day 4 in all cell lines tested with representative western blots shown for Z-138 and Maver-1 cell lines (FIG. 1). Levels of the 10 kDa band from the western blots were quantified by densitometry and ratios of 10 kDa band (postulated to be SmD3me2s) to total SmD3 were calculated to determine the IC50s (Table 2, n=1 for all samples).

[3] = system: sDMA methylation in Jeko-1 cells; experiment: sDMA western blot, 10 kDa band to total SmD3; format: cell-based; conditions: Homo sapiens
Method: as §1

[4] = system: sDMA methylation in Maver-1 cells; experiment: sDMA western blot, 10 kDa band to total SmD3; format: cell-based; conditions: Homo sapiens
Method: as §1

[5] = system: sDMA methylation in Mino cells; experiment: sDMA western blot, 10 kDa band to total SmD3; format: cell-based; conditions: Homo sapiens
Method: as §1

[6] = system: sDMA methylation in Z-138 cells; experiment: sDMA western blot, 10 kDa band to total SmD3; format: cell-based; conditions: Homo sapiens
Method: as §1

[7] = system: cellular methylation (symmetric di-methyl arginine) in Maver-1 cells; experiment: In Cell Western (ICW) methylation assay, SYM11 antibody; format: cell-based; conditions: Homo sapiens, Maver1, 96 h, 4 days of treatment, n=1
Method: [Worded in the source for another cell line; this cell line is reported under the same test.] Percent inhibition was determined and IC50 curves were generated using triplicate wells per concentration of compound. IC50 values were calculated using GraphPad Prism using a 4-parametric fit of the normalized dose response curves with the top fixed to 100%. Z-138 cells were seeded in assay medium at a concentration of 50,000 cells per mL to a 384-well cell culture plate with 50 μL per well. Compound (100 nL) from 384 well source plates was added directly to 384 well cell plate. Plates were incubated at 37° C., 5% CO2 for 96 hours. After four days of incubation, 40 μL of cells from incubated plates were added to poly-d-lysine coated 384 well culture plates (BD Biosciences 356697). Plates were incubated at room temperature for 30 minutes then incubated at 37° C., 5% CO2 for 5 hours. After the incubation, 40 μL per well of 8% paraformaldehyde in PBS (16% paraformaldahyde was diluted to 8% in PBS) was added to each plate and incubated for 30 minutes. Plates were transferred to a Biotek 405 plate washer and washed 5 times with 100 μL per well of wash buffer (1×PBS with 0.1% Triton X-100 (v/v)). […] The average of the ratio values for each control type was calculated and used to determine the percent inhibition for each test well in the plate. […] Percent inhibition was determined and IC50 curves were generated using triplicate wells per concentration of compound. […]

[8] = system: Mino cells; experiment: Gene expression of apoptotic response genes (real time PCR); format: cell-based, Human; conditions: day 4
Method: (§2) The fold change was calculated using the Comparative Ct method ([…]). N=1. A previous RNA Seq study in MCL cell lines using a tool compound with the same cellular potency as Formula B identified expression changes in a number of genes involved in the apoptotic response (unpublished results). These genes included the Bcl-2 family members PUMA and BAX, well characterized drivers of the apoptotic response. Other genes implicated in the apoptotic response were also identified and include PHLDA3, TP53I3, p21, APOBEC3H, TRIM22, and FAS.

[9] = system: MCL cell lines (Z-138, Maver-1, Mino, Jeko-1, Granta-519); experiment: Gene expression results from MCL cell lines (Table 4); format: cell-based, Human; conditions: Day 4
Method: as §2, with “FAS. […] [table]” for “FAS.”

[10] = system: sDMA methylation in bone marrow (surrogate tissue); experiment: sDMA Western blot of bone marrow samples from Z-138 efficacy study; format: in vivo; conditions: bone marrow harvested on day 21
[11] = system: heme cancer cell lines (MCL, AML, MM, lymphoma); experiment: Cell Titer-Glo growth/death assay; format: cell-based; conditions: several heme cancer cell lines incl. MCL, MM and lymphoma
Method: Heme cancer cells were treated with a PRMT5 inhibitor and a Cell Titer-Glo growth/death assay was performed.

[12] = 96 h, day 4, N = 1, read-out: sDMA Western blot IC50 10 kDa Band
[13] = Table 3, read-out: sDMA Western IC50
[14] = tested: Z-138, Maver-1, Granta-519, Jeko-1

IC50 [2, 12]: 0.3 nM
IC50 [2, 13]: 0.3 nM
IC50 [3, 12]: 9.5 nM
IC50 [3, 13]: 9.5 nM
IC50 ([4]; Maver1, 96 h, day 4, N = 1, read-out: sDMA Western blot IC50 10 kDa Band): 0.1 nM
IC50 ([4]; Maver1, Table 3, read-out: sDMA Western IC50): 0.1 nM
IC50 [5, 12]: 2 nM
IC50 [5, 13]: 2 nM
IC50 [6, 12]: 1 nM
IC50 [6, 13]: 1 nM
IC50 [7]: 1.9 nM
Structure (SMILES): CC(=O)N1CCC(Nc2cc(C(=O)NC[C@H](O)CN3CCc4ccccc4C3)ccn2)CC1 [Formula B]
IC50 ([1]; 264 h, 11-day treatment, N = 1, read-out: Formula B LTP IC50): 3 nM
IC90 ([1]; 264 h, 11-day treatment, N = 1, read-out: Formula B LTP IC90): 20 nM
IC50 ([1]; Table 3, read-out: LTP IC50): 2 nM
effects in any of the genes tested [8]: did not show any significant effects
Cell Lines Showing Dose Dependent Changes: P21 ([9]; tested: Z-138, Granta-519, Jeko-1): Z-138, Granta-519
Cell Lines Showing Dose Dependent Changes: BAX ([9]; tested: Z-138, Maver-1): Z-138, Maver-1
Cell Lines Showing Dose Dependent Changes: FAS [9, 14]: Granta-519 (slight)
Cell Lines Showing Dose Dependent Changes: TRIM22 [9, 14]: Granta-519 (slight)
Cell Lines Showing Dose Dependent Changes: PUMA ([9]; tested: Z-138, Maver-1, Mino, Jeko-1, Granta-519): Z-138, Maver-1
levels of sDMA methylation in bone marrow [10]: More of a dose-dependent response

Structure (SMILES): O=C(NC[C@H](O)CN1CCc2ccccc2C1)c1ccnc(NC2CCC2)c1 [Formula C]
proliferation in heme cancer cell lines [11]: inhibits proliferation

— patent publication US10653693B2, “PRMT5 inhibitors and uses thereof” (Epizyme, Inc., priority 2014, dated 2020)
